Measured values as given in patent publication US5366726A (priority 1992, dated 1994).

Assays:
[1] = Example 2: aerosol particle size, Mercer cascade impactor; assay type: physicochemical
Text: A compressed oxygen (5-7 L/min at 345 kPa, 50 psi) powered nebulizer produces the aerosol and one-way valves provide for entrainment of room air in patients whose minute ventilation is high, act as a baffle to decrease particle size, and direct expired air to a filter which removes the remaining particles of drug thereby preventing environmental contamination.
Particles were sized with a 7 stage Mercer cascade impactor (Intox Products, Albuquerque, N. Mex.). The gas supply was 6 L/min, the sample stream was not dried, and the impactor flow rates were 0.5 L/min. […] Results from the average of three determinations at each location were expressed as mass median aerodynamic diameter±geometric standard deviation (MMAD±GSD). Raabe, J Aerosol Sci (1971) 2:289-303.

[2] = Example 2: pentamidine in BAL supernatant, BAL sediment and serum (HPLC); assay type: in vivo, human
Text: The patients were divided into two groups.

Pneumocystis carinii [3] = assay type: in vivo, human
Pneumocystis carinii [4] = assay type: in vivo, human; remark: listed apart in the source
Text: The initial diagnosis of P. carinii pneumonia was based on finding the organism in induced sputum or bronchoalveolar lavage specimens.
Treatment was as described in Example 3.
Chest radiographs and arterial blood gas tensions were obtained as clinically indicated.

[5] = Example 8: adverse effects in the clinical trial; assay type: in vivo, human
Text: Participants were enrolled in one of 13 treatment centers located in the San Francisco Bay area.
Each treatment was supervised by a respiratory therapist who noted any immediate adverse effects and administered a bronchodilator if needed for severe coughing or bronchospasm.
Participants were questioned at baseline and at each visit about concomitant medications, intercurrent illnesses, and symptoms. Information from participants, their physicians, hospital records, microbiology departments, and county health departments were used to determine status.

[6] = human, in vivo
[7] = Respirgard or UltraVent, any dose or duration
[8] = human, in vivo; remark: listed apart in the source
[9] = parenteral pentamidine, TMP-SMX; cited from earlier work
[10] = Example 1: toxicity of inhaled vs intravenous pentamidine in patients; settings: for major toxicity: neutropenia

**Q.** Which results are given for `N=C(N)c1ccc(OCCCCCOc2ccc(C(=N)N)cc2)cc1` [pentamidine, p,p'-(pentamethylenedioxy)dibenzamidine]?
**A.** mass of particles larger than 4 μm ([1]; at mouth-piece): less than 5%; particle size MMAD ([1]; at mouth-piece (point B), ± GSD 1.88): 1.42±1.88 μm; mass of particles larger than 4 μm ([1]; distal to nebulizer): greater than 20%; BAL sediment concentration, aerosol vs intravenous group ([2]; 18-24 h): 10-100 fold; mean BAL supernatant (aerosol) vs sediment (intravenous) concentration, factor ([2]; 18-24 h): more than 2; systemic absorption ([2]; after aerosol administration): Little or no systemic absorption; dyspnea, respiratory rate and fever (Pneumocystis carinii [3]; all 13 patients treated successfully): marked reduction; patients who died of progressive respiratory failure (Pneumocystis carinii [3]; concomitant tuberculosis, changed to TMP-SMX day 7): One; clinical improvement during second week, patients (Pneumocystis carinii [3]; in vivo): 3 patients; clinical improvement in first week, patients (Pneumocystis carinii [3]; in vivo): Ten; Successful Treatment w/ Change (Pneumocystis carinii [3]; n = 15): 14(93) n (%); Successful Treatment w/o Change (Pneumocystis carinii [3]; n = 15): 13(86) n (%); worsened infiltrates at one week with subsequent improvement, patients (Pneumocystis carinii [3]; of 13): Five; worsened or no improvement for first two weeks, then improvement, patients (Pneumocystis carinii [3]; of 13): 4 patients; radiographic improvement beginning by second week, patients (Pneumocystis carinii [3]; of 13 patients treated successfully): 4; average hospital stay (Pneumocystis carinii [3]; patients treated successfully): 8 days; hypoxia, fever, dyspnea (Pneumocystis carinii [4]; 10 patients): none of the patients were hypoxic or febrile, all had improvement in dyspnea; completion of therapy (Pneumocystis carinii [4]; 10 patients, 4 to 17 days): All patients successfully completed therapy; chest radiographs (Pneumocystis carinii [4]; current or subsequent): roentrographic improvement of infiltrates; Pneumothorax, Known etiology ([5]; 30 mg): 5; Pneumothorax, Spontaneous ([5]; 30 mg): 2; Significant Cough ([5]; 30 mg): 31%; Treatments stopped due to cough ([5]; 30 mg): 0%; Used Bronchodilators ([5]; 30 mg): 7.5%; Withdrew, Adverse Effects ([5]; 30 mg): 2; Pneumothorax, Known etiology ([5]; 150 mg): 5; Pneumothorax, Spontaneous ([5]; 150 mg): 3; Significant Cough ([5]; 150 mg): 40%; Treatments stopped due to cough ([5]; 150 mg): 0.2%; Used Bronchodilators ([5]; 150 mg): 14%; Withdrew, Adverse Effects ([5]; 150 mg): 11; Pneumothorax, Known etiology ([5]; 300 mg): 3; Pneumothorax, Spontaneous ([5]; 300 mg): 3; Significant Cough ([5]; 300 mg): 38%; Treatments stopped due to cough ([5]; 300 mg): 0.7%; Used Bronchodilators ([5]; 300 mg): 20%; Withdrew, Adverse Effects ([5]; 300 mg): 10; significant coughing during a treatment ([5]; all participants): 36%; wheezing during a treatment ([5]; all participants): 11%; participants who used bronchodilators during treatment ([5]; human, in vivo): Fourteen; rash, participants ([5]; human, in vivo): One; spontaneous pneumothorax ([5]; human, in vivo): Eight; stopped due to interstitial pneumonitis, participants ([5]; human, in vivo): One; treatments ended by cough ([5]; human, in vivo): 0.3%; treatments interrupted by cough ([5]; human, in vivo): 0.5%; withdrew after pneumothoraces, participants ([5]; human, in vivo): four; airway mucosal damage at repeat bronchoscopy [6]: has not revealed evidence of airway mucosal damage; hypotension or dysglycemia [6]: no episodes of hypotension or dysglycemia; mild inhalation-associated cough, patients [6]: Eight of thirteen; mucosal damage at repeat bronchoscopy [6]: evidence of mucosal damage has not been observed; pentamidine-related reactions in some patients [6]: cough, bronchospasm, or temperature elevation; reversible bronchospasm, patients [6]: five; signs or symptoms of bronchitis or bronchospasm between inhalations [6]: not present; dose remaining in the nebulizer after inhalation [7]: approximately one third; only frequent adverse effect observed clinically [8]: transient airway irritation; rate of severe reactions [9]: 50%; minor toxicity (rash), patients ([10]; inhaled): One; major toxicity ([10]; inhaled, patients also received AZT): 20%; minor toxicity (elevated serum creatinine, depressed leukocyte count), patients ([10]; intravenous): four; required a change of therapy due to toxicity ([10]; intravenous): 11%; major toxicity ([10]; intravenous, hepatotoxicity): 22%
